Measurements taken from ChEMBL document CHEMBL5150064 (J Med Chem, 2022).
Converted amounts (≈) assume the structure as drawn. The source made the active and inactive calls. The rule behind the calls is not given here.

Experiments:
[1] = Plasma protein binding in rat assessed as unbound fraction at 5 uM incubated for 4 hrs by equllibrium dialysis method; type: ADME, cell-free
[2] = Oral bioavailability in Sprague-Dawley rat plasma at 5 mg/kg measured upto 8 hrs by LC-MS/MS method; type: ADME, organism-based
[3] = Oral bioavailability in NCR nude mouse at 5 mg/kg measured upto 8 hrs by LC-MS/MS analysis; type: ADME, organism-based; details: in vivo
[4] = Lipophilicity, logD of compound in 1-Octanol/PBS at pH 7.4 by LC-MS/MS method; type: physicochemical
[5] = Thermodynamic solubility of the compound in FaSSGF; type: physicochemical; details: read-out: Therm_solubility
HCC1954 [6] = assay: Antitumor activity against human HCC1954 cells xenografted in mouse assessed as increase in cleaved PARP level at 50 mg/kg, po; type: functional, organism-based
[7] = Clearance in Sprague-Dawley rat plasma at 1 mg/kg, iv measured upto 8 hrs by LC-MS/MS analysis; type: ADME, organism-based
[8] = Clearance in SCID-Beige mouse plasma at 1 mg/kg, iv measured upto 24 hrs by LC-MS/MS analysis; type: ADME, organism-based
HCC1954 [9] = assay: Antitumor activity against human HCC1954 cells xenografted in mouse assessed as tumor growth inhibition at 25 mg/kg, po QD; type: functional; details: read-out: TGI
[10] = AUC in NCR nude mouse at 5 mg/kg, po measured upto 8 hrs by LC-MS/MS analysis; type: ADME, organism-based; parameters: time < 8 hrs, dose 5 mg/kg, route po; details: in vivo
Cytochrome P450 2D6 = Cytochrome P450 2D6 (Homo sapiens, UniProt P10635); assay: Inhibition of CYP2D6 (unknown origin); type: ADME
Cytochrome P450 1A2 = biological target: T1, Cytochrome P450 1A2 (Homo sapiens, UniProt P05177); assay: Inhibition of CYP1A2 (unknown origin); type: ADME
T1 sequence (P05177 whole entry): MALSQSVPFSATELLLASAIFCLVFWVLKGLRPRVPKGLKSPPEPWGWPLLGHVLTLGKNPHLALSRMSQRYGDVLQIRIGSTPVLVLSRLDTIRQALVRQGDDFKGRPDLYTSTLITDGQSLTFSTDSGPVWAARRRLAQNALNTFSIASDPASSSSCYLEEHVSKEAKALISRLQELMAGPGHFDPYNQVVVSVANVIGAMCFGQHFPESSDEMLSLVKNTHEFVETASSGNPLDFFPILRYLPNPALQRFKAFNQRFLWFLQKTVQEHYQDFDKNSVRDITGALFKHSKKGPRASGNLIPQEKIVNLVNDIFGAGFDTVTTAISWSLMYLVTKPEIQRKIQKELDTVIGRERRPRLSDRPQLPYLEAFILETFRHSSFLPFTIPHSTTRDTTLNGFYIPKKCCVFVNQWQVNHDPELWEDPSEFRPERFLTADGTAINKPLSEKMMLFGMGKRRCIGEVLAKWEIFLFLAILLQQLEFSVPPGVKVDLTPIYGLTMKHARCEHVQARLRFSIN

[11] = test system: Phosphatidylinositol 4,5-bisphosphate 3-kinase catalytic subunit alpha isoform (Homo sapiens), P42336 [H1047R]; assay: Induction of P110alpha H1047R mutant degradation in human HCC1954 cells at 0.012 to 1 uM after 24 hrs; type: cell-based; details: dose 0.012-1 µM
Mus musculus [12] = assay: In vivo inhibition of PI3K in human HCC1954 cells xenografted in mouse at 50 mg/kg, po; type: functional, organism-based; details: TDE = time-dependent effect
hERG (KCNH2) = hERG (KCNH2) (Homo sapiens, UniProt Q12809); assay: Inhibition of human ERG at 10 uM relative to control; type: toxicity
Cytochrome P450 2C9 = Cytochrome P450 2C9 (Homo sapiens, UniProt P11712); assay: Inhibition of CYP2C9 (unknown origin); type: ADME
Sequence of Cytochrome P450 2C9 (P11712 whole entry): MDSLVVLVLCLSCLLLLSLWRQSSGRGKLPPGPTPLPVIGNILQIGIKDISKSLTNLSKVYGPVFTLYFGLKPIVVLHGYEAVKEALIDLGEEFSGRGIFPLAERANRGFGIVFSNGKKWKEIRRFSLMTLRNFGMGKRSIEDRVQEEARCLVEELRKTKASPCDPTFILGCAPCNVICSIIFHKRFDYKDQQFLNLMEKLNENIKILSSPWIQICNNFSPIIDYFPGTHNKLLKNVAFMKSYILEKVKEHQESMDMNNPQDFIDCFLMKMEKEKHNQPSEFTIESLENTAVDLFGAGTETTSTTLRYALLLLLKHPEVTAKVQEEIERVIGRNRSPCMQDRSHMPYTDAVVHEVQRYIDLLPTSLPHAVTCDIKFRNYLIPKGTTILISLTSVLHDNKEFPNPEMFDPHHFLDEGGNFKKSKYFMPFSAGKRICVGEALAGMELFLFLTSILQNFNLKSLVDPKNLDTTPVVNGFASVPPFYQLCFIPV

Mus musculus [13] = assay: In vivo PI3K degradation in human HCC1954 cells xenografted in mouse at 50 mg/kg, po; type: functional, organism-based
Cytochrome P450 2C19 = Cytochrome P450 2C19 (Homo sapiens, UniProt P33261); assay: Inhibition of CYP2C19 (unknown origin); type: ADME
Cytochrome P450 2C8 = biological target: T2, Cytochrome P450 2C8 (Homo sapiens, UniProt P10632); assay: Inhibition of CYP2C8 (unknown origin); type: ADME
T2 sequence (P10632 whole entry): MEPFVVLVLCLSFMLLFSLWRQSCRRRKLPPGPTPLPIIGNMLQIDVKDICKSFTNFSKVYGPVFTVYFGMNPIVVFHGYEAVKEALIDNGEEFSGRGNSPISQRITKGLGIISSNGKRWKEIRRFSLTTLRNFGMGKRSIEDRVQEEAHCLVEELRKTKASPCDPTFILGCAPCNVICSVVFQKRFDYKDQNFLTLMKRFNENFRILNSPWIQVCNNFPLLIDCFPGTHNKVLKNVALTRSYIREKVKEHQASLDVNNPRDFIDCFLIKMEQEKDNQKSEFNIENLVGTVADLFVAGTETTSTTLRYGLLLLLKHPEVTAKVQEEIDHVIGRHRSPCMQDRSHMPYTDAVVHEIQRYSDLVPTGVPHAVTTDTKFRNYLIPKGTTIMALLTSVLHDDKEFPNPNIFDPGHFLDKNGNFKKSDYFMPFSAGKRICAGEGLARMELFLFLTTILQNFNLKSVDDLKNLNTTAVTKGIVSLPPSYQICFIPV

Mus musculus [14] = assay: In vivo inhibition of PI3K in human HCC1954 cells xenografted in po dosed mouse; type: functional, organism-based; details: DDE = dose-dependent effect
CaV1.2 = CaV1.2 (Homo sapiens, UniProt Q13936); assay: Inhibition of human CaV1.2 at 10 uM relative to control
Sequence of CaV1.2 (Q13936 whole entry): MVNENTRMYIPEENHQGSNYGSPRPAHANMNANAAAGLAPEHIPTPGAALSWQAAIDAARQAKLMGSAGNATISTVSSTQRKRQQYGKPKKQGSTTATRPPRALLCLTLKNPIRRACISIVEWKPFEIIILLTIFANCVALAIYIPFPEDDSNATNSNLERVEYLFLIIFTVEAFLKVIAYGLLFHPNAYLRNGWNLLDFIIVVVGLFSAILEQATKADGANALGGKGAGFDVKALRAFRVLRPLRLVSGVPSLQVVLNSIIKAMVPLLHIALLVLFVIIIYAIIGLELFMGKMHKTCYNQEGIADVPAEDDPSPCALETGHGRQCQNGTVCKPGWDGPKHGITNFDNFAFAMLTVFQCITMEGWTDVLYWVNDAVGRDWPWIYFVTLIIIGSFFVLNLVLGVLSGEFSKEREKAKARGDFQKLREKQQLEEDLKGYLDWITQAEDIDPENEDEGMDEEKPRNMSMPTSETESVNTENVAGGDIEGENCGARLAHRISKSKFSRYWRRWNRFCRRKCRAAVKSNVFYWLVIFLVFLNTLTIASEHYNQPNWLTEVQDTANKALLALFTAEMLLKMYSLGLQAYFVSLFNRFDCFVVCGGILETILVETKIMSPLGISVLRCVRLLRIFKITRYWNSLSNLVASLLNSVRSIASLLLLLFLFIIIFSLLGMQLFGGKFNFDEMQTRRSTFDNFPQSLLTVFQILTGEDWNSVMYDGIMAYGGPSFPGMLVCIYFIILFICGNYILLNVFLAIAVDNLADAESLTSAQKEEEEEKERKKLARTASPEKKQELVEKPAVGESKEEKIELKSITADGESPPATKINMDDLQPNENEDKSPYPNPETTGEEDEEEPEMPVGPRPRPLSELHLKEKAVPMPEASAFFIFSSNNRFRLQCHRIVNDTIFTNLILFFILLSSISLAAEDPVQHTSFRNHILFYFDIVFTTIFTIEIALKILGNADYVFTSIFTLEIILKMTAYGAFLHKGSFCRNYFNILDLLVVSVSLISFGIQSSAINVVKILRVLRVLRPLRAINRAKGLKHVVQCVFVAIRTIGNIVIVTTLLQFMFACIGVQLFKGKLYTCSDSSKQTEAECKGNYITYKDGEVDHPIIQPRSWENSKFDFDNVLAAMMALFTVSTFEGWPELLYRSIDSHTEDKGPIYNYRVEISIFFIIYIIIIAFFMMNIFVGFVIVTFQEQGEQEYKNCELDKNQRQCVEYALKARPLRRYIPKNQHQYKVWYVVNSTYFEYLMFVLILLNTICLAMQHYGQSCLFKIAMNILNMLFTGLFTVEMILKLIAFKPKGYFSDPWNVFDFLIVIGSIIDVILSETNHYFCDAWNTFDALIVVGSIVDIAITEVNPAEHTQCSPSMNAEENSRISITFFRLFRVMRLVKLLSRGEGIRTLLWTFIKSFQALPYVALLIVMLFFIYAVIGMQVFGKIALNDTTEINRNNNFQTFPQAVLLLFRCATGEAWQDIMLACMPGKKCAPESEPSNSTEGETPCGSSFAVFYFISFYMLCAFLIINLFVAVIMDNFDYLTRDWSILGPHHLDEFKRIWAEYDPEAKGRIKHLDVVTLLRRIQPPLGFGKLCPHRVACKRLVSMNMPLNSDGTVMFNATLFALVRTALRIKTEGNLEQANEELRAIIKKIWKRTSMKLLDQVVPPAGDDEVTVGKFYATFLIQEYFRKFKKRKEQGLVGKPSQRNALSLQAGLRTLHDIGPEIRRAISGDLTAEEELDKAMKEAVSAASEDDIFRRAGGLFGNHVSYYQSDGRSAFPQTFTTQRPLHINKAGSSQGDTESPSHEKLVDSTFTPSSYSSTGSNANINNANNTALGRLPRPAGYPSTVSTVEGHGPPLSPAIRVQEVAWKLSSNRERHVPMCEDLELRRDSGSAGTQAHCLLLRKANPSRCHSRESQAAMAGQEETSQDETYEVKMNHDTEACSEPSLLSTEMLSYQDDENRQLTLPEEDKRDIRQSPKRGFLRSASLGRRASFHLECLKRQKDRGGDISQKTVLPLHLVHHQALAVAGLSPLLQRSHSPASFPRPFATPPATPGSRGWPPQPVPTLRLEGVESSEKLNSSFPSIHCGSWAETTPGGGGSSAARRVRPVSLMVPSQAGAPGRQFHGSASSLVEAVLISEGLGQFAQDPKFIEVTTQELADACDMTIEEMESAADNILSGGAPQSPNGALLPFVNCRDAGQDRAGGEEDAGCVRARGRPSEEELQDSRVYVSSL

Homo sapiens = species on record: Homo sapiens; assay: Inhibition of PI3KC2b (unknown origin) at 1 uM relative to control
[15] = Plasma protein binding in human assessed as unbound fraction at 5 uM incubated for 4 hrs by equllibrium dialysis method; type: ADME, cell-free
[16] = biological target: Phosphatidylinositol 4,5-bisphosphate 3-kinase catalytic subunit alpha isoform (Homo sapiens, UniProt P42336, H1047R)
[17] = Dissociation constant, pKa of the compound; type: physicochemical
NaV1.5 = NaV1.5 (Homo sapiens, UniProt Q14524); assay: Inhibition of human NaV1.5 at 10 uM relative to control
Sequence of NaV1.5 (Q14524 whole entry): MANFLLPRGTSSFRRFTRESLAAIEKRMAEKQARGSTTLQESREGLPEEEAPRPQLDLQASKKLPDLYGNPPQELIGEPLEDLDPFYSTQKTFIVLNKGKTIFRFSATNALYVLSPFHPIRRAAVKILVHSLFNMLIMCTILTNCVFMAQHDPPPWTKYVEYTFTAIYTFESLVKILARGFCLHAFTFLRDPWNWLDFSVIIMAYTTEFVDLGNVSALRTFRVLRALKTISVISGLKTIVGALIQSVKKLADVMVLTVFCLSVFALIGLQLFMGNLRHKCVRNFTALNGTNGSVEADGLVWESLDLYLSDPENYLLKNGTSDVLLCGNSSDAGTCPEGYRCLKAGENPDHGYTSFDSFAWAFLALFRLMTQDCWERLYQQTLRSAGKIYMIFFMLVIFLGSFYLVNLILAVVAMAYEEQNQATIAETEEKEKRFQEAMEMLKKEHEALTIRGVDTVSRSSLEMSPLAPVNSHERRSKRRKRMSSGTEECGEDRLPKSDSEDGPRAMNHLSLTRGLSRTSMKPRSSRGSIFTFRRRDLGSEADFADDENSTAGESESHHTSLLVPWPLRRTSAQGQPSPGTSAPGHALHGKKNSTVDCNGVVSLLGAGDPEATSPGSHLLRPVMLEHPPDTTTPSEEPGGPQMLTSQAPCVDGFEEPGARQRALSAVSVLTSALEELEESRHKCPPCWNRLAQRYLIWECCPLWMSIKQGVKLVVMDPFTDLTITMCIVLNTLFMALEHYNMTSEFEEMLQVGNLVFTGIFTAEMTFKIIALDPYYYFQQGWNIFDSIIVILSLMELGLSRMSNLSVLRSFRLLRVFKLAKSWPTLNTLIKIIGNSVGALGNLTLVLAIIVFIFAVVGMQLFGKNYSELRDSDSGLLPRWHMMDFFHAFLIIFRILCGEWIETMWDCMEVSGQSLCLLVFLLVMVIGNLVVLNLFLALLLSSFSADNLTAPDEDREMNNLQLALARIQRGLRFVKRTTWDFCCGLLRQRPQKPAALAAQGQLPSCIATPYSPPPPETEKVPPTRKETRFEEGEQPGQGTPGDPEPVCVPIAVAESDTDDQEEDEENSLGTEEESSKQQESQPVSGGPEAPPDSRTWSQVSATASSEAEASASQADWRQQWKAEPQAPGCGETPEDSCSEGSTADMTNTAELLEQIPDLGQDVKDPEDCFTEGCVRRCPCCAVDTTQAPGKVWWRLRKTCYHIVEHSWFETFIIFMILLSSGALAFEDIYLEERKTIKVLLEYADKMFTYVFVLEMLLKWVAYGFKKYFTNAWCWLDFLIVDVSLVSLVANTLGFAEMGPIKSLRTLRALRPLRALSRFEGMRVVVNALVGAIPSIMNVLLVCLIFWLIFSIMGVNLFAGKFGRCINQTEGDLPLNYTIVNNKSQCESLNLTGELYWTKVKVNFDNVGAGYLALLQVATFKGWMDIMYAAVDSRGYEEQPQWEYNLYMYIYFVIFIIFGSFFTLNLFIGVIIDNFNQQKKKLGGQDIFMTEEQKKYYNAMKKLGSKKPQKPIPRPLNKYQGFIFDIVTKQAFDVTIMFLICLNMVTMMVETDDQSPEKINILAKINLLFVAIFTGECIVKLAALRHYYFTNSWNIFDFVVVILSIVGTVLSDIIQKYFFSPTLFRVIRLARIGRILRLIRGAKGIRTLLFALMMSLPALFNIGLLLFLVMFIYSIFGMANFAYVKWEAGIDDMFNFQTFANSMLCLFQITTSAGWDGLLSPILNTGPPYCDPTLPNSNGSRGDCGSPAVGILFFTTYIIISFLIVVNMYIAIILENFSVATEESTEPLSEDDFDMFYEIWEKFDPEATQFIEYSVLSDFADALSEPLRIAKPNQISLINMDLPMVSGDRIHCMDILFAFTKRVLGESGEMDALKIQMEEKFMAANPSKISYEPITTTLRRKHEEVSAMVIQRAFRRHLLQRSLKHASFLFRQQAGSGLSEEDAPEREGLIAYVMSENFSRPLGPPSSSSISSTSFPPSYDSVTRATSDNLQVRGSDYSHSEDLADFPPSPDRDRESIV

Cytochrome P450 3A4 = Cytochrome P450 3A4 (Homo sapiens, UniProt P08684); assay: Inhibition of CYP3A4 (unknown origin); type: ADME
[18] = Inhibition of PI3KC2b (unknown origin); parameters: species or system Homo sapiens
MCF7 = assay: Antiproliferative activity against human MCF7 cells assessed as reduction in cell viability incubated for 4 days by Celltiter-Glo luminescence assay; type: functional, cell-based; details: MCF7, 96 h
[19] = Thermodynamic aqueous solubility of the compound at pH 7.4; type: physicochemical; details: read-out: Therm_solubility
HCC1954 [20] = assay: Antitumor activity against human HCC1954 cells xenografted in mouse assessed as tumor growth inhibition at 50 mg/kg, po QD; type: functional; details: read-out: TGI
[21] = Oral bioavailability in NCR nude mouse at 50 mg/kg measured upto 8 hrs by LC-MS/MS analysis; type: ADME, organism-based; details: in vivo
[22] = Thermodynamic aqueous solubility of the compound at pH 2; type: physicochemical; details: read-out: Therm_solubility
[23] = Plasma protein binding in mouse assessed as unbound fraction at 5 uM incubated for 4 hrs by equllibrium dialysis method; type: ADME, cell-free
[24] = AUC in NCR nude mouse at 50 mg/kg, po measured upto 8 hrs by LC-MS/MS analysis; type: ADME, organism-based; parameters: dose 50 mg/kg, time < 8 hrs, route po; details: in vivo

With `C[C@H](Nc1ccc2c(c1)OCCn1cc(N3C(=O)OC[C@H]3C(F)F)nc1-2)C(N)=O` [INAVOLISIB] the fraction unbound at 4 h, 5 µM [1] was 0.608, the bioavailability [2] was 58% and the bioavailability [3] was 45%. For the same compound, the logD [4] was 0.8, the solubility thermodynamic [5] was 1600 µg/mL (≈ 3930 µM) and the Activity (HCC1954 [6]) was “Active”. It also gave a clearance [7] of 86 mL/min/kg, a clearance [8] of 37 mL/min/kg and an inhibition in vivo at 25 mg/kg (HCC1954 [9]) of 140%. The AUC at 8 h [10] was 2.5 µM·h, the IC50 (Cytochrome P450 2D6) was greater than 10 µM and the IC50 (Cytochrome P450 1A2) was greater than 10 µM. For the same compound, the Activity [11] was “Active”, the inhibition (Mus musculus [12]) was “Tde” and the inhibition at 10 µM (hERG (KCNH2)) was less than 20%. For the same compound, the IC50 (Cytochrome P450 2C9) was greater than 10 µM, the inhibition (Mus musculus [13]) was “Active” and the IC50 (Cytochrome P450 2C19) was greater than 10 µM. The IC50 (Cytochrome P450 2C8) was greater than 10 µM, the inhibition (Mus musculus [14]) was “Dde” and the inhibition at 10 µM (CaV1.2) was less than 20%. The inhibition (Homo sapiens) was greater than 80%, the fraction unbound at 4 h, 5 µM [15] was 0.589 and the EC50 [16] was 0.019 µM. It also gave a pKa [17] of 3.3, an inhibition at 10 µM (NaV1.5) of less than 20% and an IC50 (Cytochrome P450 3A4) greater than 10 µM. For the same compound, the IC50 [18] was 0.056 µM, the EC50 (MCF7) was 0.03 µM and the solubility thermodynamic [19] was 38 µg/mL (≈ 93.3 µM). For the same compound, the inhibition in vivo at 50 mg/kg (HCC1954 [20]) was 149%, the bioavailability [21] was 59% and the solubility thermodynamic [22] was 615 µg/mL (≈ 1510 µM). It also gave a fraction unbound at 4 h, 5 µM [23] of 0.261 and an AUC at 8 h [24] of 32.9 µM·h.
